Experimental data published in patent US10898469B2, “Imidazolylamide derivative” (Sumitomo Dainippon Pharma Co., Ltd., priority 2016, dated 2021).

What was measured:
Format in all cases: cell-based, human
[1] = tested on: HT-29 cells; test: Inhibition test for sphere-forming ability of cancer cells (Test Example 1), HT-29; settings: concentration for 50% inhibition of cell proliferation, read-out: IC50 (μmol/L) HT-29 (Sphere IC50 value)
In short: (§1)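 Sphere formation, non-adherent, serum-free: 350-800 cells/well, DMEM/F12 + 2% B27, 20 ng/mL EGF, 10 ng/mL bFGF, 5 μg/mL insulin. Compound in 0.1% DMSO final, 4 d. CellTiter-Glo luminescence; IC50 (μmol/L) for 50% inhibition of proliferation.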

[2] = tested on: HCT-116 cells; test: Inhibition test for sphere-forming ability of cancer cells in the presence of BSA (Test Example 2), HCT-116; settings: for IC50: HCT-116 cells, in the presence of 5% BSA, cultured 4 days; for inhibitory effect on the sphere-forming ability of cancer cells: Test Example 2, in the presence of 5% BSA, summary in words, cell line not given (HCT-116, HT-29, FaDu tested)
In short: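 Spheres grown 4 days in ultra-low-attachment wells, 350-800 cells/well, in DMEM/F12 with 2% B27, 20 ng/mL EGF, 10 ng/mL bFGF, 5 μg/mL insulin and 5% BSA; 0.1% DMSO final. Viable cells read by CellTiter-Glo luminescence; Sphere IC50 (μmol/L) for 50% proliferation inhibition.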

[3] = tested on: HT-29 cells; test: Inhibition test for sphere-forming ability of cancer cells in the presence of BSA (Test Example 2), HT-29; settings: in the presence of 5% BSA, cultured 4 days
Description: (§2) Human colorectal cancer-derived HCT-116 cells, human colon-adenocarcinoma-derived HT-29 cells, and human pharyngeal cancer-derived FaDu cells were available from American Type Culture Collection (ATCC). HCT-116 cells and HT-29 cells were cultured at 37° C. under 5% CO2 using the McCoy's 5a medium containing 10% fetal bovine serum (FBS) and 1% penicillin/streptomycin, and FaDu cells were cultured at 37° C. under 5% CO2 using the MEM medium containing 10% FBS, 1% non-essential amino acid, 1% sodium pyruvate, 5% bovine serum albumin (BSA), and 1% penicillin/streptomycin. HCT-116 cells, HT-29 cells, and FaDu cells were seeded in a 384 Well Black Clear Bottom Ultra-Low Attachment Microplate (Corning Cat. No. 3827) in an amount of 350-800 cells/well using the DMEM/F12 medium containing 2% B27 supplement (GIBCO), 20 ng/mL epidermal growth factor (EGF) (peprotech), 10 ng/mL basic fibroblast growth factor (bFGF) (peprotech), 5 μg/mL insulin (Sigma), 5% bovine serum albumin (BSA), and 1% penicillin/streptomycin. Each test compound was added into each well to adjust the final concentration of DMSO to 0.1%, and the cells were cultured for 4 days. The number of viable cells in each well was then measured with CellTiter-Glo® Luminescent Cell Viability Assay (Promega) to calculate the concentration of each test compound for 50% inhibition of cell proliferation (Sphere IC50 value; μmol/L).
(§3) The experiment of Test Example 2 was performed for each compound of each Example.
(§4) The concentration of each test compound for 50% inhibition of cell proliferation (Sphere IC50 value; μmol/L) is shown in the following Table.

[4] = tested on: HCT-116 cells; test: Inhibition test for sphere-forming ability of cancer cells (Test Example 1), HCT-116; settings: for IC50: HCT-116 cells, concentration for 50% inhibition of cell proliferation, read-out: IC50 (μmol/L) HCT-116 (Sphere IC50 value); for inhibitory effect on the sphere-forming ability of cancer cells: Test Example 1, summary in words, cell line not given (HCT-116, HT-29, FaDu tested)
In short: as §1

[5] = tested on: FaDu cells; test: Inhibition test for sphere-forming ability of cancer cells (Test Example 1), FaDu; settings: concentration for 50% inhibition of cell proliferation, read-out: IC50 (μmol/L) FaDu (Sphere IC50 value)
In short: as §1

[6] = tested on: FaDu cells; test: Inhibition test for sphere-forming ability of cancer cells in the presence of BSA (Test Example 2), FaDu; settings: in the presence of 5% BSA, cultured 4 days
Description: as §2, §3, §4

SMILES	IC50 ([1]; Homo sapiens) [µmol/L]	IC50 ([2]; Homo sapiens, HCT-116, 96 h) [nM]	IC50 ([3]; Homo sapiens, 96 h) [nM]	IC50 ([4]; Homo sapiens) [µmol/L]	IC50 ([5]; Homo sapiens) [µmol/L]	IC50 ([6]; Homo sapiens, 96 h) [nM]	IC50 [1] [µmol/L]	IC50 [2] [nM]	IC50 [3] [nM]	IC50 [4] [µmol/L]	IC50 [5] [µmol/L]	IC50 [6] [nM]	inhibitory effect on the sphere-forming ability of cancer cells [2]	inhibitory effect on the sphere-forming ability of cancer cells [4]
O=C(/C=C/c1ccc(NCC(F)F)nc1)Nc1cn(Cc2cccc(Cl)c2)cn1 [Example 14, (E)-N-(1-(3-Chlorobenzyl)-1H-imidazol-4-yl)-3-(6-((2,2-difluoroethyl)amino)pyridin-3-yl)acrylamide]	< 0.01	360	60	0.06	0.04	60	–	–	–	–	–	–	particularly potent inhibitory effect	particularly potent inhibitory effect
COc1ccc(NC(=O)c2cn(Cc3cc(F)c(F)c(F)c3)cn2)cc1OC [Example 251, N-(3,4-Dimethoxyphenyl)-1-(3,4,5-trifluorobenzyl)-1H-imidazole-4-carboxamide]	0.54	770	600	0.21	0.43	550	–	–	–	–	–	–	–	–
CNc1ccc(/C=C/C(=O)Nc2cn(Cc3cccc(C(F)(F)F)c3)cn2)cn1 [Example 17]	–	–	–	–	–	–	0.04	640	350	0.08	0.08	50	particularly potent inhibitory effect	particularly potent inhibitory effect
CNc1ccc(/C=C/C(=O)Nc2cn(Cc3cccc(Cl)c3)cn2)cn1 [Example 16]	–	–	–	–	–	–	0.06	640	500	0.31	0.08	70	particularly potent inhibitory effect	particularly potent inhibitory effect
CC(=O)Nc1ccc(/C=C/C(=O)Nc2cn(Cc3cc(F)c(F)c(F)c3)cn2)cc1 [Example 11, (2E)-3-[4-(acetylamino)phenyl]-N-[1-(3,4,5-trifluorobenzyl)-1H-imidazol-4-yl]prop-2-enamide]	0.08	260	70	< 0.01	0.08	60	–	–	–	–	–	–	particularly potent inhibitory effect	particularly potent inhibitory effect
O=C(/C=C/c1ccc(NC(=O)CO)cc1)Nc1cn(Cc2cccc(Cl)c2)cn1 [Example 7, (E)-N-(1-(3-Chlorobenzyl)-1H-imidazol-4-yl)-3-(4-(2-hydroxyacetylamino)phenyl)acrylamide]	0.13	790	550	0.66	0.35	460	–	–	–	–	–	–	–	–
CC(=O)Nc1ccc(/C=C/C(=O)Nc2cn(Cc3cccc(OC(F)(F)F)c3)cn2)cc1 [Example 10, (2E)-3-[4-(acetylamino)phenyl]-N-{1-[3-(trifluoromethoxy)benzyl]-1H-imidazol-4-yl}prop-2-enamide]	0.07	830	550	0.63	0.07	280	–	–	–	–	–	–	–	–
O=C(/C=C/C=C/c1ccccc1)Nc1cn(Cc2cccc(Cl)c2)cn1 [Example 46, (2E,4E)-N-(1-(3-Chlorobenzyl)-1H-imidazol-4-yl)-5-phenylpenta-2,4-dienamide]	0.62	> 10000	7600	2.62	0.79	4670	–	–	–	–	–	–	–	–
CCNc1ccc(/C=C/C(=O)Nc2cn(Cc3cccc(Cl)c3)cn2)cn1 [Example 18]	–	–	–	–	–	–	0.02	580	50	0.07	0.06	30	particularly potent inhibitory effect	particularly potent inhibitory effect

Further lines, with some results ahead:

IC50 ([1]; Homo sapiens) [µmol/L]	IC50 ([2]; Homo sapiens, HCT-116, 96 h) [nM]	IC50 ([3]; Homo sapiens, 96 h) [nM]	IC50 ([4]; Homo sapiens) [µmol/L]	IC50 ([5]; Homo sapiens) [µmol/L]	IC50 ([6]; Homo sapiens, 96 h) [nM]	IC50 [1] [µmol/L]	IC50 [2] [nM]	IC50 [3] [nM]	IC50 [4] [µmol/L]	IC50 [5] [µmol/L]	IC50 [6] [nM]	SMILES	inhibitory effect on the sphere-forming ability of cancer cells [2]	inhibitory effect on the sphere-forming ability of cancer cells [4]
0.42	9840	7150	9.22	7.25	6800	–	–	–	–	–	–	CC(=O)Nc1ccc(C(=O)Nc2cn(Cc3cccc(Cl)c3)cn2)cn1 [Example 247, 6-(Acetylamino)-N-[1-(3-chlorobenzyl)-1H-imidazol-4-yl]nicotinamide]	–	–
0.09	570	630	0.09	0.42	150	–	–	–	–	–	–	COc1ccc(C(=O)Nc2cn(Cc3cc(F)cc(F)c3)cn2)cc1OC [Example 152, 3,4-dimethoxy-N-[1-(3,5-difluorobenzyl)-1H-imidazol-4-yl]benzamide]	–	particularly potent inhibitory effect
–	–	–	–	–	–	0.71	6810	4090	0.76	0.67	3090	O=C(Nc1ccc(Cn2cccn2)cc1)c1cn(Cc2cccc(Cl)c2)cn1 [Example 260]	–	–
–	–	–	–	–	–	0.75	7750	6180	4.77	0.89	2420	COc1ccc(C(=O)Nc2cn(Cc3cc(F)ccc3F)cn2)cc1OC [Example 149]	–	–
–	–	–	–	–	–	6.62	> 10000	> 10000	3.05	8.72	7030	COc1ccc(C(=O)Nc2cn(Cc3c(F)ccc(F)c3F)cn2)cc1OC [Example 155]	–	–
–	–	–	–	–	–	0.73	6390	3200	0.66	0.82	660	COc1ccc(C(=O)Nc2cn(Cc3ccc(F)c(F)c3F)cn2)cc1OC [Example 153]	–	–
–	–	–	–	–	–	0.83	6830	5970	0.78	3.12	910	COc1ccc(C(=O)Nc2cn(Cc3cccc(F)c3F)cn2)cc1OC [Example 147]	–	–
–	–	–	–	–	–	0.8	> 10000	890	0.71	0.88	600	COc1ccc(C(=O)Nc2cn(Cc3cc(F)cc(F)c3F)cn2)cc1OC [Example 154]	–	–
–	–	–	–	–	–	6.89	> 10000	7420	7.33	8.46	5640	COc1ccc(C(=O)Nc2cn(Cc3c(F)c(F)c(F)c(F)c3F)cn2)cc1OC [Example 157]	–	–
–	–	–	–	–	–	1.51	> 10000	5460	3.56	1.73	5040	COc1ccc(C(=O)Nc2cn(Cc3ccc(F)cc3C(F)(F)F)cn2)cc1OC [Example 163]	–	–
0.09	650	550	0.35	0.31	330	–	–	–	–	–	–	COc1ccc(C(=O)Nc2cn(Cc3ccc(F)c(F)c3)cn2)cc1OC [Example 151, 3,4-dimethoxy-N-[1-(3,4-difluorobenzyl)-1H-imidazol-4-yl]benzamide]	–	particularly potent inhibitory effect
0.84	6350	5210	0.95	0.93	960	–	–	–	–	–	–	COc1ccc(C(=O)Nc2cn(Cc3cc(F)c(F)cc3F)cn2)cc1OC [Example 143, 3,4-Dimethoxy-N-[1-(2,4,5-trifluorobenzyl)-1H-imidazol-4-yl]benzamide]	–	–
